The values below come from ChEMBL document CHEMBL1126357, “Synthesis of sodium salt of ortho-(difluoromethyl)phenyl--ketoside of N-acetylneuraminic acid : a mechanism-based inhibitor of Clostridium perfringens neuraminidase” (Bioorg Med Chem Lett, 1992).

pKi: −log10 of the molar value.

The test can be described thus: Ki apparent against Clostridium perfringens neuraminidase was determined. The note with it: read-out: Ki app.

Take `CC(=O)NC1C(O)CC(Oc2ccccc2C(F)F)(C(=O)O)OC1[C@H](O)[C@H](O)CO` (stereo partly specified): the pKi (as a rule, −log10 of the Ki, conventionally taken in molar units) was 3.82.
